This note sets out measurements from patent US20010041724A1, “METHOD FOR THE CONTROL OF FLEA BEETLES IN CANOLA” (priority 1998, published 2001).

One test has as its system canola. As to the kind of experiment: Canola seed treatment, yield at end of growing season. Format: in vivo. The note with it: canola seed treated with acetamiprid; end of the growing season.
In test [1] the test system is Phyllotreta spp. (flea beetles). As to the kind of experiment: Canola seed treatment, shot-hole damage assessment post-emergence. The format is in vivo. The note with it: 4, 7, 10 and 14 days post-emergence. As for the experimental part:
Acetamiprid is applied to canola seed at rates of 7.5, 10, and 12.5 grams of active ingredient per kg of seed. Imidacloprid is applied to canola seed at rate of 15 g/kg of seed. The seed is planted and allowed to grow. At 4, 7, 10 and 14 days post-emergence of the plant, damage is assessed for the plants by looking for shot-hole damage.

For the compound `C/C(=N\C#N)N(C)Cc1ccc(Cl)nc1` [acetamiprid, (E)-N^1-[(6-chloro-3-pyridyl)methyl]-N^2-cyano-N^1-methylacetamidine], in the test on canola, the “yield of plants grown from treated seed” value was “general yield increase”. Further, the “control of shot-hole damage relative to imidacloprid” value in test [1] (acetamiprid 7.5, 10 and 12.5 g a.i./kg canola seed vs imidacloprid 15 g/kg seed) is “substantially more control than imidacloprid”. Further, the “control of shot-hole damage relative to two stage lindane+terbufos treatment” value in test [1] (acetamiprid 7.5, 10 and 12.5 g a.i./kg canola seed) is given as “generally equivalent to the two stage lindane+terbufos treatment”.
